Patent US10196403B2, “Compounds and compositions and uses thereof” (Sunovion Pharmaceuticals Inc., priority 2016, dated 2019)

Test system: mice
Test: Neuropharmacological Assay (SmartCube)
Format: in vivo
Details: for minimal effective dose: Mus musculus, MED = dose having 50% or more total activity in SmartCube, read-out: POTENCY (minimal effective dose, MED); for AD: ADHD (SmartCube probability) / AG: analgesic (SmartCube probability) / AX: anxiolytic (SmartCube probability) / CE: cognitive enhancer (SmartCube probability) / DP: anti-depressant (SmartCube probability) / MS: mood stabilizer (SmartCube probability) / PS: anti-psychotic (SmartCube probability) / SD: sedative hypnotic (SmartCube probability) / UN: uncharacterized CNS activity (SmartCube probability): mice, i.p. 15 min before test, most efficacious dose(s) of 3 doses
Description: Neuropharmacological Assay (SmartCube™)
Neurosci. 2011 Sep. 9; 5:103 (doi: 10.3389/fnins.2011.00103) (“Roberds”). As reported in Roberds, because psychiatric diseases generally result from disorders of cell-cell communication, circuitry, intact systems are useful in detecting improvement in disease-relevant endpoints. These endpoints are typically behavioral in nature, often requiring human observation and interpretation. To facilitate testing of multiple compounds for behavioral effects relevant to psychiatric disease, PsychoGenics, Inc. (Tarrytown, N.Y., “PGI”) developed SmartCube™, an automated system in which behaviors of compound-treated mice are captured by digital video and analyzed with computer algorithms. (D. Brunner et al., Drug Discov. Today 2002, 7:S107-S112). PGI Analytical Systems uses data from SmartCube™ to compare the behavioral signature of a test compound to a database of behavioral signatures obtained using a large set of diverse reference compounds. (The composition of the database as well as validation of the method is further described in Roberds). In this way, the neuropharmacological effects of a test compound can be predicted by similarity to major classes of compounds, such as antipsychotics, anxiolytics and antidepressants.
The SmartCube™ system produces an activity signature indicating the probability that the activity of the test compound at the administered dose matches a given class of neuropharmacological agents. (See, e.g., Roberds, FIGS. 2 and 3). The test compound is simultaneously compared against multiple classes of agents; thus, a separate probability is generated for each behavioral effect measured (e.g., anxiolytic activity, analgesic activity, etc.). In the table below, these probabilities are reported for each behavioral effect measured as follows:
where LOQ is the limit of quantification.
Provided compounds were dissolved in a mixture of Pharmasolve™ (N-methyl-2-pyrrolidone), polyethylene glycol and propylene glycol, and were injected i.p. 15 min. before the behavioral test. For each compound, injections were administered at 3 different doses. For each behavioral effect measured, results for the most efficacious dose(s) are presented. In the table below, DP: anti-depressant; AX: anxiolytic; SD: sedative hypnotic; PS: anti-psychotic; MS: mood stabilizer; AD: ADHD; CE: cognitive enhancer; AG: analgesic; UN: uncharacterized CNS activity.
The potency of many of the compounds in the table was also determined in the SmartCube™ system. Test compounds were routinely examined at dose levels of 0.3, 1, 3 10 and 30 mg per kg (mpk), although the dose range was increased or decreased if necessary to obtain a full dose response curve. A compound's minimal effective dose (MED) is a measure of the compounds potency. The MED was defined as the dose (in mpk) having 50% or more total activity in SmartCube.

Compound | minimal effective dose [mg/kg] | AD: ADHD (SmartCube probability) | AG: analgesic (SmartCube probability) | AX: anxiolytic (SmartCube probability) | CE: cognitive enhancer (SmartCube probability) | DP: anti-depressant (SmartCube probability) | MS: mood stabilizer (SmartCube probability) | PS: anti-psychotic (SmartCube probability) | SD: sedative hypnotic (SmartCube probability) | UN: uncharacterized CNS activity (SmartCube probability)
CNC[C@H]1OC[C@@H](C)c2ccccc21 [Example 19, N-methyl-1-((1S,4S)-4-methylisochroman-1-yl)methanamine] | 3 to 10 | + (LOQ≤ + <5%) | ++ (5%≤ ++ <25%) | ++ (5%≤ ++ <25%) | ++ (5%≤ ++ <25%) | ++ (5%≤ ++ <25%) | ++ (5%≤ ++ <25%) | ++ (5%≤ ++ <25%) | + (LOQ≤ + <5%) | ++ (5%≤ ++ <25%)
CNC[C@H]1OCCc2c(F)ccc(F)c21 [Example 30, (S)-1-(5,8-difluoroisochroman-1-yl)-N-methylmethanamine] | 3 to 10 | + (LOQ≤ + <5%) | ++ (5%≤ ++ <25%) | ++ (5%≤ ++ <25%) | ++ (5%≤ ++ <25%) | ++ (5%≤ ++ <25%) | + (LOQ≤ + <5%) | ++ (5%≤ ++ <25%) | ++ (5%≤ ++ <25%) | +++ (25%≤ +++ <50%)
CNC[C@H]1OCCc2c(C#N)cccc21 [Example 46, (S)-1-((methylamino)methyl)isochromane-5-carbonitrile] | 3 to 10 | + (LOQ≤ + <5%) | + (LOQ≤ + <5%) | ++ (5%≤ ++ <25%) | ++ (5%≤ ++ <25%) | ++ (5%≤ ++ <25%) | + (LOQ≤ + <5%) | ++ (5%≤ ++ <25%) | ++ (5%≤ ++ <25%) | +++ (25%≤ +++ <50%)
CN(C)C[C@@H]1OCCc2cccc(F)c21 [Example 85, (R)-1-(8-fluoroisochroman-1-yl)-N,N-dimethylmethanamine] | < 3 | + (LOQ≤ + <5%) | + (LOQ≤ + <5%) | +++ (25%≤ +++ <50%) | ++ (5%≤ ++ <25%) | ++ (5%≤ ++ <25%) | + (LOQ≤ + <5%) | ++ (5%≤ ++ <25%) | ++ (5%≤ ++ <25%) | +++ (25%≤ +++ <50%)
NC[C@@H]1OCCc2cc(F)ccc21 [Example 34, (R)-(6-fluoroisochroman-1-yl)methanamine] | < 3 | + (LOQ≤ + <5%) | ++ (5%≤ ++ <25%) | ++ (5%≤ ++ <25%) | ++ (5%≤ ++ <25%) | ++ (5%≤ ++ <25%) | ++ (5%≤ ++ <25%) | +++ (25%≤ +++ <50%) | + (LOQ≤ + <5%) | +++ (25%≤ +++ <50%)
CNC[C@@H]1OCCc2c(C#N)cccc21 [Example 47, (R)-1-((methylamino)methyl)isochromane-5-carbonitrile] | 3 to 10 | + (LOQ≤ + <5%) | + (LOQ≤ + <5%) | ++ (5%≤ ++ <25%) | + (LOQ≤ + <5%) | ++++ (50%≤ ++++) | + (LOQ≤ + <5%) | ++ (5%≤ ++ <25%) | ++ (5%≤ ++ <25%) | ++ (5%≤ ++ <25%)
